Laboratory results published in patent US7115279B2, “Pharmaceutical compositions of cholesteryl ester transfer protein inhibitors” (priority 2000, dated 2006).

Tests used:
Format in all cases: physicochemical
[1] = in vitro dissolution test, microcentrifuge method, MFDS (Example 5, Drug 1 dispersions); details: model-fasted duodenal solution (MFDS), pH 6.5, maximum concentration of Drug 1 in solution during the 90-minute test, TCmax 100 or 500 μg/mL
Experimental: The spray-dried dispersions of Examples 1 to 4 were evaluated in in vitro dissolution tests using a microcentrifuge method. In this method, 1 mg of the spray-dried dispersions was added to a 1.5-mL microcentrifuge tube. The tube was placed in a 37° C. sonicating bath, and 1 mL of a model-fasted duodenal solution (MFDS) (comprising sodium taurocholate/1-palmitoyl-2-oleoyl-sn-glycero-3-phosphocholine (NaTC-POPC) in phosphate-buffered saline (PBS) at pH 6.5 and 290 mOsm/kg) was added. The samples were quickly mixed using a combination of vortex mixer and sonication for about 90 seconds. The theoretical maximum concentration (“TCmax”) of drug for Examples 1–3 if all the drug dissolved was 100 μg/mL, while for Example 4 the TCmax was 500 μg/mL. The samples were centrifuged at 13,000 G at 37° C. for 1 minute. The resulting supernatant solution was then sampled (100 μL) and diluted with 200 μL methanol and then analyzed by HPLC. The tubes were then mixed on the vortex mixer and allowed to stand undisturbed at 37° C. until the next sample. Samples were collected at 3, 10, 30, 60, and 90 minutes and for Examples 1 and 2 at 1200 minutes.
For Control 1, an in vitro test was performed using the procedure described above, except that 0.18 mg of crystalline Drug 1 was placed in a microcentrifuge tube and mixed with 1.8 mL of MFDS.

[2] = in vitro dissolution test, microcentrifuge method, PBS (Example 8, Drug 2 dispersions); details: for Drug 2 Concentration / AUC: PBS pH 6.5, 37° C.; for Drug 2 Concentration: dose about 1000 μg/mL
Experimental: The spray-dried dispersions of Examples 6 and 7 were evaluated in an in vitro dissolution test using a microcentrifuge method. In this test, the spray-dried dispersion was added to a microcentrifuge tube for a Drug 2 dose of about 1000 μg/mL (7.2 mg for Example 6, 18 mg for Example 7). The tube was placed in a 37° C. sonicating bath, and 1.8 mL phosphate buffered saline (PBS) at pH 6.5 and 290 mOsm/kg was added. The samples were quickly mixed using a vortex mixer for about 60 seconds. The samples were centrifuged at 13,000 G at 37° C. for 1 minute. The resulting supernatant solution was then sampled and diluted 1:6 (by volume) with methanol and then analyzed by high-performance liquid chromatography (HPLC). The contents of the tubes were mixed on the vortex mixer and allowed to stand undisturbed at 37° C. until the next sample was taken. Samples were collected at 4, 10, 20, 40, 90, and 1200 minutes. […]

[3] = in vitro dissolution test, receptor solution MFDS (Example 17, Drug 2 dispersions); details: TCmax 400 or 100 μg/mL, read-out: Cmax, 90
Experimental: The spray-dried dispersions of Examples 6 and 7 were evaluated in an in vitro dissolution test using a microcentrifuge method. In this test, the spray-dried dispersion was added to a microcentrifuge tube for a Drug 2 dose of about 1000 μg/mL (7.2 mg for Example 6, 18 mg for Example 7). The tube was placed in a 37° C. sonicating bath, and 1.8 mL phosphate buffered saline (PBS) at pH 6.5 and 290 mOsm/kg was added. The samples were quickly mixed using a vortex mixer for about 60 seconds. The samples were centrifuged at 13,000 G at 37° C. for 1 minute. The resulting supernatant solution was then sampled and diluted 1:6 (by volume) with methanol and then analyzed by high-performance liquid chromatography (HPLC). The contents of the tubes were mixed on the vortex mixer and allowed to stand undisturbed at 37° C. until the next sample was taken. Samples were collected at 4, 10, 20, 40, 90, and 1200 minutes.
The dispersions of Examples 9–16 were also evaluated in an in vitro dissolution test using receptor solutions of MFDS using the procedures outlined in Example 8.
For Control 3, an in vitro dissolution test was performed using the procedure described above except that 0.72 mg of crystalline Drug 2 was used.

[4] = in vitro dissolution test, microcentrifuge method, PBS (Example 29, Drug 3 dispersions); details: phosphate-buffered saline, pH 6.5, TCmax 400 μg/mL, read-out: Cmax, 90
Experimental: The spray-dried dispersions of Examples 21–28 were evaluated in an in vitro dissolution test using a microcentrifuge method. In this method, 7.2 mg of each SDD was added to a 2-mL microcentrifuge tube. The tube was placed in a 37° C. sonicating bath, and 1.8 mL of a phosphate-buffered saline (PBS) solution at pH 6.5 and 290 mOsm/kg was added, resulting in a TCmax of 400 μg/mL. The samples were quickly mixed using a combination of vortex mixer and sonication for about 90 seconds. The samples were centrifuged at 13,000 G at 37° C. for 1 minute. The resulting supernatant solution was then sampled and diluted 1:6 (by volume) with methanol and then analyzed by HPLC. The tubes were then mixed on the vortex mixer and allowed to stand undisturbed at 37° C. until the next sample. Samples were collected at 4, 10, 20, 40, 90 and 1200 minutes.
For Control 5, an in vitro dissolution test was performed using the procedure described above, except that 0.72 mg of non-crystalline Drug 3 was placed in a microcentrifuge tube and mixed with 1.8 mL of PBS.

[5] = in vitro dissolution test, microcentrifuge method, PBS (Example 42, Drugs 4-9 dispersions); details: PBS pH 6.5, 37° C.; for Cmax: phosphate-buffered saline, read-out: Cmax, 90
Experimental: In this method, 15 mg of each SDD was added to a 2-mL microcentrifuge tube. The tube was placed in a 37° C. sonicating bath, and 1.5 mL of a phosphate-buffered saline (PBS) solution at pH 6.5 and 290 mOsm/kg) was added, resulting in a TCmax of 1000 μg/mL. The samples were quickly mixed using a combination of vortex mixer and sonication for about 90 seconds. The samples were centrifuged at 13,000 G at 37° C. for 1 minute. The resulting supernatant solution was then sampled and diluted 1:6 (by volume) with methanol and then analyzed by HPLC. The tubes were then mixed on the vortex mixer and allowed to stand undisturbed at 37° C. until the next sample. Samples were collected at 4, 10, 20, 40, and 90 minutes.
For Controls 6–11, an in vitro dissolution test was performed using the procedure described above, except that 1.5 mg of non-crystalline drug was placed in a microcentrifuge tube and mixed with 1.5 mL of PBS.

With COC(=O)N(Cc1cc(C(F)(F)F)cc(C(F)(F)F)c1)[C@@H]1C[C@H](C2CC2)N(C(=O)OC(C)C)c2ccc(C(F)(F)F)cc21 [Control 1, [2R,4R] 4-[(3,5-bis-trifluoromethyl-benzyl)-methoxycarbonyl-amino]-2-cyclopropyl-6-trifluoromethyl-3,4-dihydro-2H-quinoline-1-carboxylic acid isopropyl ester] the Cmax at 100 μg/mL [1] was 900 ng/mL.
For CCOC(=O)N1c2ccc(C(F)(F)F)cc2[C@@H](N(Cc2cc(C(F)(F)F)cc(C(F)(F)F)c2)C(=O)OC)C[C@H]1CC [Control 2, [2R,4S] 4-[(3,5-bis-trifluoromethyl-benzyl)-methoxycarbonyl-amino]-2-ethyl-6-trifluoromethyl-3,4-dihydro-2H-quinoline-1-carboxylic acid ethyl ester], the “Drug 2 Concentration” value ([2]; time 0 min) was 0 µg/mL, the “Drug 2 Concentration” value ([2]; time 4 min) was 6 µg/mL and the “Drug 2 Concentration” value ([2]; time 10 min) was under 1 µg/mL. The “Drug 2 Concentration” value ([2]; time 20 min) was under 1 µg/mL, the “Drug 2 Concentration” value ([2]; time 40 min) was 3 µg/mL and the “Drug 2 Concentration” value ([2]; time 90 min) was under 1 µg/mL. The “Drug 2 Concentration” value ([2]; time 1200 min) was under 1 µg/mL, the AUC ([2]; time 0 min) was 0 µg·min/mL and the AUC ([2]; time 4 min) was 12 µg·min/mL. For the same compound, the AUC ([2]; time 10 min) was 30 µg·min/mL, the AUC ([2]; time 20 min) was 30 µg·min/mL and the AUC ([2]; time 40 min) was 60 µg·min/mL. For the same compound, the AUC ([2]; time 90 min) was 135 µg·min/mL, the AUC ([2]; time 1200 min) was 135 µg·min/mL and the AUC90 ([2]; area under the aqueous concentration versus time curve after 90 minutes, PBS) was 135 µg·min/mL. It also gave a Cmax at 1000 μg/mL ([2]; phosphate buffered saline (PBS), pH 6.5, maximum concentration of Drug 2 in solution during the first 90 minutes, PBS) of 6000 ng/mL.
CCOC(=O)N1c2ccc(C(F)(F)F)cc2[C@@H](N(Cc2cc(C(F)(F)F)cc(C(F)(F)F)c2)C(=O)OC)C[C@H]1CC [Control 3, [2R,4S] 4-[(3,5-bis-trifluoromethyl-benzyl)-methoxycarbonyl-amino]-2-ethyl-6-trifluoromethyl-3,4-dihydro-2H-quinoline-1-carboxylic acid ethyl ester] gave a Cmax [3] of under 1000 ng/mL.
In the case of CCCOC(=O)N1c2ccc(C(F)(F)F)cc2[C@@H](N(Cc2cc(C(F)(F)F)cc(C(F)(F)F)c2)C(=O)OC)C[C@H]1CC [Control 5, [2R,4S] 4-[(3,5-bis-trifluoromethyl-benzyl)-methoxycarbonyl-amino]-2-ethyl-6-trifluoromethyl-3,4-dihydro-2H-quinoline-1-carboxylic acid propyl ester], the Cmax [4] is reported as under 100 ng/mL.
Work on CCOC(=O)N1c2cc(OC)c(OC)cc2[C@@H](N(Cc2cc(C(F)(F)F)cc(C(F)(F)F)c2)C(=O)OC)C[C@H]1C [Control 6, [2R,4S] 4-[(3,5-bis-trifluoromethyl-benzyl)-methoxycarbonyl-amino]-6,7-dimethoxy-2-methyl-3,4-dihydro-2H-quinoline-1-carboxylic acid ethyl ester] yielded a Cmax ([5]; TCmax 1000 μg/mL) of under 1000 ng/mL.
Compound CCOC(=O)N1c2cc(CC)c(CC)cc2[C@@H](N(Cc2cc(C(F)(F)F)cc(C(F)(F)F)c2)C(=O)OC)C[C@H]1C [Control 7, [2R,4S] 4-[(3,5-bis-trifluoromethyl-benzyl)-methoxycarbonyl-amino]-6,7-diethyl-2-methyl-3,4-dihydro-2H-quinoline-1-carboxylic acid ethyl ester] has a Cmax ([5]; TCmax 1000 μg/mL) of under 1000 ng/mL.
Work on CCOC(=O)N1c2cc3c(cc2[C@@H](N(Cc2cc(C(F)(F)F)cc(C(F)(F)F)c2)C(=O)OC)C[C@H]1C)CCC3 [Control 8, [2R,4S] 4-[(3,5-bis-trifluoromethyl-benzyl)-methoxycarbonyl-amino]-2-methyl-2,3,4,6,7,8-hexahydro-cyclopenta[g]quinoline-1-carboxylic acid ethyl ester] yielded an AUC ([5]; Time 0 min) of 0 µg·min/mL, a Concentration ([5]; Time 0 min) of 0 ng/mL and a Cmax ([5]; TCmax 1000 μg/mL) of under 1000 ng/mL.
For CC[C@@H]1C[C@H](N(Cc2cc(C(F)(F)F)cc(C(F)(F)F)c2)C(C)=O)c2cc(C(F)(F)F)ccc2N1C(=O)OC(C)C [Control 9, [2R,4S] 4-[acetyl-(3,5-bis-trifluoromethyl-benzyl)-amino]-2-ethyl-6-trifluoromethyl-3,4-dihydro-2H-quinoline-1-carboxylic acid isopropyl ester], the Cmax ([5]; TCmax 1000 μg/mL) was under 1000 ng/mL.
COC(=O)N(Cc1cc(C(F)(F)F)cc(C(F)(F)F)c1)[C@H]1C[C@@H](C2CC2)N(C(=O)OC(C)C)c2ccc(C(F)(F)F)cc21 [Control 10, [2S,4S] 4-[(3,5-bis-trifluoromethyl-benzyl)-methoxycarbonyl-amino]-2-cyclopropyl-6-trifluoromethyl-3,4-dihydro-2H-quinoline-1-carboxylic acid isopropyl ester] gave a Cmax ([5]; TCmax 1000 μg/mL) of under 1000 ng/mL.
For CC1(C)Cc2nc(C3CCCC3)c([C@@H](F)c3ccc(C(F)(F)F)cc3)c(-c3ccc(F)cc3)c2[C@@H](O)C1 [Control 11, [3S,5S] 2-cyclopentyl-4-(4-fluoro-phenyl)-3-[fluoro-(4-trifluoromethyl-phenyl)-methyl]-7,7-dimethyl-5,6,7,8-tetrahydro-quinolin-5-ol], the “Cmax, 90” value ([5]; TCmax 1000 μg/mL) was under 1000 ng/mL.
